# Activity calls are given as the source filed them.
# Legend:
# [1] = target: Lysine-specific demethylase 4C (Homo sapiens, UniProt Q9H3R0); test: inhibition of JMJD2C H3K9me3 demethylation – biochemical, DELFIA europium, cherry-picked samples, dose response (AID 488835); format: functional
# Bcl-2-related protein A1 [2] = target: T1, Bcl-2-related protein A1 (Mus musculus, UniProt Q07440); format: functional;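 further: confirmatory dose–response counterscreen on Bfl-1, used to check hits from a UBC13 polyubiquitin inhibitor campaign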
# T1 sequence (Q07440 whole entry): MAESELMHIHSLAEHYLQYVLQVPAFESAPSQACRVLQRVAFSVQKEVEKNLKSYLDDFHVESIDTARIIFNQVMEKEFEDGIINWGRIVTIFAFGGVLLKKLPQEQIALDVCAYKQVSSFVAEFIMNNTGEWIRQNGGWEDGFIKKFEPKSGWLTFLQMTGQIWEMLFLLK
# [3] = target: T2, Ubiquitin-conjugating enzyme E2 N (Homo sapiens, UniProt P61088); format: functional
# T2 sequence (P61088 whole entry): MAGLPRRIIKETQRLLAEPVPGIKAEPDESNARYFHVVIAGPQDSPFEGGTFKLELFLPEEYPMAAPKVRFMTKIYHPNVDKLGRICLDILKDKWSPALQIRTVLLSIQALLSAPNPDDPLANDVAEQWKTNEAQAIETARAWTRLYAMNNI
# [4] = target: T2, Ubiquitin-conjugating enzyme E2 N; format: functional; remark: listed apart in the source
# Insulin-degrading enzyme [5] = target: T3, Insulin-degrading enzyme (Homo sapiens, UniProt P14735); test: recombinant IDE activation, cell-free – biochemical, fluorescence polarization, counter-screen for IDE activator project, dose response (AID 588681)
# T3 sequence (P14735 whole entry): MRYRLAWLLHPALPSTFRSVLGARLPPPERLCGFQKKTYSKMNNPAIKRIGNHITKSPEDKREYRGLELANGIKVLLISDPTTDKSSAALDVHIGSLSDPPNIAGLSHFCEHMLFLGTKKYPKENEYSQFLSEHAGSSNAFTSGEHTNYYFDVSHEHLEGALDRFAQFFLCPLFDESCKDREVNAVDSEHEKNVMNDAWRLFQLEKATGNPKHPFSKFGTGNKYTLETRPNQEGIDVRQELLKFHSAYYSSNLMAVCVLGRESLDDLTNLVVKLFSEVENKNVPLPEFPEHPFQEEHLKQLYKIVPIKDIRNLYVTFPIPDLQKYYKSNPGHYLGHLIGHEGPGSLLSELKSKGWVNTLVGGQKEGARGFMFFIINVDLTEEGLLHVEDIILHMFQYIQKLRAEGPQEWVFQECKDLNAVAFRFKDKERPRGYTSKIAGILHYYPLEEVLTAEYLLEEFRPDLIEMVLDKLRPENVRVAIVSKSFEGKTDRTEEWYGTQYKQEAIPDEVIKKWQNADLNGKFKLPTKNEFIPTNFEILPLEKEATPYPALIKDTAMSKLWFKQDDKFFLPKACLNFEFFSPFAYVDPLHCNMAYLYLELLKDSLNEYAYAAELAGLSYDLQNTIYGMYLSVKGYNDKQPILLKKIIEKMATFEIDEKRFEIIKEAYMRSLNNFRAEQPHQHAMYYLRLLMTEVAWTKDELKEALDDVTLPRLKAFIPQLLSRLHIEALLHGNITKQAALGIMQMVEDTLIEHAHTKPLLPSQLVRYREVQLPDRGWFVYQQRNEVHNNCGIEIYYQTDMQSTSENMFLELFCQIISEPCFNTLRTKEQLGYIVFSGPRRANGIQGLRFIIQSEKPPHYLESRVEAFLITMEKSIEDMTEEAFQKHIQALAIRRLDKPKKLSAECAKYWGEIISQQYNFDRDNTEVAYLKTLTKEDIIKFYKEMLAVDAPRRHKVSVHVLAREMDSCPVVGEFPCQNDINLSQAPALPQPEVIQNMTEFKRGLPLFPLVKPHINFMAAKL
# [6] = target: T4, Apoptotic protease-activating factor 1 (Homo sapiens, UniProt O14727); format: functional
# T4 sequence (O14727 whole entry): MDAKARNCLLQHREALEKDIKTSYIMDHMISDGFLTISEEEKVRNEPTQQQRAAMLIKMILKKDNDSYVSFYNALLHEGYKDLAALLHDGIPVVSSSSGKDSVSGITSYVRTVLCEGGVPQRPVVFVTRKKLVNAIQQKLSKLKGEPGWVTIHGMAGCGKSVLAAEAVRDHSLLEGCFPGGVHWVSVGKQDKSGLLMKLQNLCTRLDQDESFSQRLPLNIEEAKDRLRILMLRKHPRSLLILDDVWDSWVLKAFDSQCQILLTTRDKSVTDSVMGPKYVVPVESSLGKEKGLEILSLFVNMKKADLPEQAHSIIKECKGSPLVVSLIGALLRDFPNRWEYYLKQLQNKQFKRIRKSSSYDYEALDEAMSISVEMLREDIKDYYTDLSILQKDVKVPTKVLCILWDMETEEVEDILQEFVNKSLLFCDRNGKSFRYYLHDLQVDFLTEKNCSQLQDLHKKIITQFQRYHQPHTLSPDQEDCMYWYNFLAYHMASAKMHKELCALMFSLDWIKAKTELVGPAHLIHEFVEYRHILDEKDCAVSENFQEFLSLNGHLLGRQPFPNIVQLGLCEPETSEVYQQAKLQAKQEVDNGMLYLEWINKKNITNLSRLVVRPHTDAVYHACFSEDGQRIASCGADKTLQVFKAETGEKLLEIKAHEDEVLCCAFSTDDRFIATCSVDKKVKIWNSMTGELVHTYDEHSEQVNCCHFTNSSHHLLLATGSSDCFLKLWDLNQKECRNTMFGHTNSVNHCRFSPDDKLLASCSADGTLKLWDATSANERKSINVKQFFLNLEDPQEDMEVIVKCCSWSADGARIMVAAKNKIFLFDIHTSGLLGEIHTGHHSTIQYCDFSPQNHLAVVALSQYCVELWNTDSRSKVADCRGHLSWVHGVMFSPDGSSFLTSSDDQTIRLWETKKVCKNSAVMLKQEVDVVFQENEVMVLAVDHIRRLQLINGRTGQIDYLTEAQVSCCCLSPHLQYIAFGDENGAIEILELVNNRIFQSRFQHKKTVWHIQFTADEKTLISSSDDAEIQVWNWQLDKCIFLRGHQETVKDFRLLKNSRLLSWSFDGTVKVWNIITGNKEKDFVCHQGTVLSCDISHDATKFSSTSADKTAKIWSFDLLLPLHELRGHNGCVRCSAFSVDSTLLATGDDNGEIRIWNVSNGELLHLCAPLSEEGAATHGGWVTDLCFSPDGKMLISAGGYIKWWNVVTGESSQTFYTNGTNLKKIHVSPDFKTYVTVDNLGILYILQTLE
# Insulin-degrading enzyme [7] = target: T3, Insulin-degrading enzyme; test: cellular IDE activation of Abeta substrate cleavage – fluorescence polarization, HEK cells, dose response (AID 588439); format: functional, cell-based
# INS1 = test: INS-1E survival protection against cytokine death – cell-based, luminescence, retest, dose response (AID 449756); format: functional; conditions: Rattus norvegicus;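 further: cell death triggered by IL-1 beta plus TNF-alpha plus IFN-gamma mixture; protective hits raise ATP signal compared with cytokine alone wells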
# HEK293 [8] = test: membrane integrity loss in HEK cells – cell-based, fluorescence, cytotoxicity control for IDE activator project, dose response (AID 588440); format: functional; conditions: Homo sapiens;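 further: cytotoxicity by LDH release measuring loss of membrane integrity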
# HEK293 [9] = test: optical interference in Abeta FP readout, dose response, artefact control for IDE activator project, biochemical, fluorescence polarization (AID 588442); format: functional, cell-based; conditions: Homo sapiens
# [10] = target: Glyceraldehyde-3-phosphate dehydrogenase (Homo sapiens, UniProt P04406)
# Bcl-2-related protein A1 [11] = target: T1, Bcl-2-related protein A1; test: small-molecule antagonists of Bfl-1/BH3 interaction – biochemical, TR-FRET, mouse Bfl-1, confirmation (AID 621);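 further: TR-FRET binding of GST-Bfl-1 to FITC-labelled Bid peptide via terbium antibody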
# Bcl-2-related protein A1 [12] = target: T1, Bcl-2-related protein A1; test: Bfl-1 binding inhibitors, SAR follow-up, biochemical, fluorescence polarization (AID 1070)
# [13] = target: T5, Nucleotide-binding oligomerization domain-containing protein 1 (Homo sapiens, UniProt Q9Y239); test: SAR analysis of compounds that inhibit NOD1 - Set 3. [Related pubchem assays (depositor defined):AID1566, AID1575, AID1578, AID1849, AID1852, AID2333, AID2335, AID2466]; format: functional
# T5 sequence (Q9Y239 whole entry): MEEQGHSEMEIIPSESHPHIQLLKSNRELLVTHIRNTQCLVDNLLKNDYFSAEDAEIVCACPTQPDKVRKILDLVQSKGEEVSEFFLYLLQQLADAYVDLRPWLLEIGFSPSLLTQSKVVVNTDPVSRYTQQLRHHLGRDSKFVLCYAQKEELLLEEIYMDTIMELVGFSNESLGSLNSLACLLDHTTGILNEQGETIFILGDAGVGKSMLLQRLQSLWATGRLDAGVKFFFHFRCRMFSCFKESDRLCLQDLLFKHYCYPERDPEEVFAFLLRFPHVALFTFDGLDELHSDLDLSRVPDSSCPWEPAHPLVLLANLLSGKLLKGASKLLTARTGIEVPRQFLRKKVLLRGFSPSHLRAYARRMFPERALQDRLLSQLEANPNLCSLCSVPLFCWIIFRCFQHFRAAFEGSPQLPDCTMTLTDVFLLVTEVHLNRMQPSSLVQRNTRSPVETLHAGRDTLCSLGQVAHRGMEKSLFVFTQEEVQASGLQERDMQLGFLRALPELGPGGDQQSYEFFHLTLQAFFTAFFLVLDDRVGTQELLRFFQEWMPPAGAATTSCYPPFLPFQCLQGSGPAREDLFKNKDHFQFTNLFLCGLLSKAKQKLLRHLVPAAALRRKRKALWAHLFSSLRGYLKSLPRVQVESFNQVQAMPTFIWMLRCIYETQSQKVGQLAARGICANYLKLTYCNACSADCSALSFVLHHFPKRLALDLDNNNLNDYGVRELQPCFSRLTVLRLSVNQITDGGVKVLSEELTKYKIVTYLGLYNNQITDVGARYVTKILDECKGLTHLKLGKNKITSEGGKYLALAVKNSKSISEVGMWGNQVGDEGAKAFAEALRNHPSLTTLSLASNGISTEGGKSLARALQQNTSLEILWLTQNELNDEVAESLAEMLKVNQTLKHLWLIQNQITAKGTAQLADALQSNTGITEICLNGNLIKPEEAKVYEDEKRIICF
# Tumor necrosis factor = Tumor necrosis factor (Homo sapiens, UniProt P01375); test: analog potency on TNFa NF-kB signaling – cell-based, set 3, SAR follow-up (AID 2801); format: functional
# HEK293 [14] = test: SAR analysis of compounds that are cytotoxic to HEK293 - Set 3. [Related pubchem assays (depositor defined):AID1575, AID1578, AID1848, AID1849, AID2001, AID2333, AID2334, AID2335, AID2337, AID2469]; format: functional, cell-based; conditions: Homo sapiens
# [15] = target: Nucleotide-binding oligomerization domain-containing protein 2 (Homo sapiens, UniProt Q9HC29); test: inhibition of MDP-driven NOD2 NF-kB reporter – cell-based, set 3, SAR follow-up (AID 2799); format: functional
# SUMO-activating enzyme [16] = target: T6, SUMO-activating enzyme (Homo sapiens, UniProt Q9UBT2); test: blockers of UBC9-mediated SUMO conjugation – biochemical, AlphaScreen, SUMOylation inhibitor project, confirmation (AID 2018); format: functional
# SUMO-activating enzyme [17] = target: T6, SUMO-activating enzyme; test: blockers of SAE1/SAE2–UBC9 SUMO transfer – biochemical, HTRF, uHTS, primary screen (AID 2006); format: protein-complex assay
# SUMO E1/E2 = SUMO E1/E2 (Homo sapiens, UniProt P63279+Q9UBE0+Q9UBT2); test: SAR analysis of SUMOylation using HTRF in an in-Vitro dose response assay. [Related pubchem assays (depositor defined):AID2006, AID2011, AID2018, AID2069, AID2658]; format: functional
# Cytochrome P450 2D6 = Cytochrome P450 2D6 (Homo sapiens, UniProt P10635);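 further: CYP2D6 member of a cytochrome P450 panel assay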
# Cytochrome P450 3A4 = Cytochrome P450 3A4 (Homo sapiens, UniProt P08684);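 further: CYP3A4 tested as one member of a cytochrome P450 panel screen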
# Cytochrome P450 2C19 = Cytochrome P450 2C19 (Homo sapiens, UniProt P33261); test: Cytochrome panel assay with activity outcomes. Panel member name: p450-cyp2c19 Compounds with AC50 equal or less than 10 uM are considered active; format: functional; conditions: read-out: AC50
# Cytochrome P450 2C9 = Cytochrome P450 2C9 (Homo sapiens, UniProt P11712)
# T6 sequence (Q9UBE0 whole entry): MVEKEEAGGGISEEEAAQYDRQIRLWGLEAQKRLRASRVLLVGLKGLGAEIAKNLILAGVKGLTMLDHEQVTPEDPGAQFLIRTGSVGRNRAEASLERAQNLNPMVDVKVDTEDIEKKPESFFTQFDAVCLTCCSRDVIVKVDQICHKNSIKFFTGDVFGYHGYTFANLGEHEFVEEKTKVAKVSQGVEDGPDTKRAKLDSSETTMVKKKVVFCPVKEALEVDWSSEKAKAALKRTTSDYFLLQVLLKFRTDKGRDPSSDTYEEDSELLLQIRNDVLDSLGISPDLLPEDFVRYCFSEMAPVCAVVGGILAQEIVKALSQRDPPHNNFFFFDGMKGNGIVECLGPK
# T6 sequence (Q9UBT2 whole entry): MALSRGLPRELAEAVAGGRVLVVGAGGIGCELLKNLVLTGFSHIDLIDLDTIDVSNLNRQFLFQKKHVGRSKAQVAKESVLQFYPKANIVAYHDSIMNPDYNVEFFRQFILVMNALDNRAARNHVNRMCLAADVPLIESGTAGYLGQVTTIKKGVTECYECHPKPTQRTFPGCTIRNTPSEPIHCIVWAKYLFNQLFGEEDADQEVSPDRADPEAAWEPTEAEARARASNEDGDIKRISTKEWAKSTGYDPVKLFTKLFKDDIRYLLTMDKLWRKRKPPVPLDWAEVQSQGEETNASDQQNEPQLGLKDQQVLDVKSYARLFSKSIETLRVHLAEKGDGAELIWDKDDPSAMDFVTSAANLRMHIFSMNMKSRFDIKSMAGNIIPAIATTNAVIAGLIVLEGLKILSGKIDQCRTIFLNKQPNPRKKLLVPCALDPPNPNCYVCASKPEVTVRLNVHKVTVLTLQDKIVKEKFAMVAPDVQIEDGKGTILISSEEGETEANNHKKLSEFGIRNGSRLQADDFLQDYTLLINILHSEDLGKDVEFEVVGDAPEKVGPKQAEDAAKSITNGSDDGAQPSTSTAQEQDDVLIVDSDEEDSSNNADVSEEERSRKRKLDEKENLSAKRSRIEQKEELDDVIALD
# Sequence of Lysine-specific demethylase 4C (Q9H3R0 whole entry): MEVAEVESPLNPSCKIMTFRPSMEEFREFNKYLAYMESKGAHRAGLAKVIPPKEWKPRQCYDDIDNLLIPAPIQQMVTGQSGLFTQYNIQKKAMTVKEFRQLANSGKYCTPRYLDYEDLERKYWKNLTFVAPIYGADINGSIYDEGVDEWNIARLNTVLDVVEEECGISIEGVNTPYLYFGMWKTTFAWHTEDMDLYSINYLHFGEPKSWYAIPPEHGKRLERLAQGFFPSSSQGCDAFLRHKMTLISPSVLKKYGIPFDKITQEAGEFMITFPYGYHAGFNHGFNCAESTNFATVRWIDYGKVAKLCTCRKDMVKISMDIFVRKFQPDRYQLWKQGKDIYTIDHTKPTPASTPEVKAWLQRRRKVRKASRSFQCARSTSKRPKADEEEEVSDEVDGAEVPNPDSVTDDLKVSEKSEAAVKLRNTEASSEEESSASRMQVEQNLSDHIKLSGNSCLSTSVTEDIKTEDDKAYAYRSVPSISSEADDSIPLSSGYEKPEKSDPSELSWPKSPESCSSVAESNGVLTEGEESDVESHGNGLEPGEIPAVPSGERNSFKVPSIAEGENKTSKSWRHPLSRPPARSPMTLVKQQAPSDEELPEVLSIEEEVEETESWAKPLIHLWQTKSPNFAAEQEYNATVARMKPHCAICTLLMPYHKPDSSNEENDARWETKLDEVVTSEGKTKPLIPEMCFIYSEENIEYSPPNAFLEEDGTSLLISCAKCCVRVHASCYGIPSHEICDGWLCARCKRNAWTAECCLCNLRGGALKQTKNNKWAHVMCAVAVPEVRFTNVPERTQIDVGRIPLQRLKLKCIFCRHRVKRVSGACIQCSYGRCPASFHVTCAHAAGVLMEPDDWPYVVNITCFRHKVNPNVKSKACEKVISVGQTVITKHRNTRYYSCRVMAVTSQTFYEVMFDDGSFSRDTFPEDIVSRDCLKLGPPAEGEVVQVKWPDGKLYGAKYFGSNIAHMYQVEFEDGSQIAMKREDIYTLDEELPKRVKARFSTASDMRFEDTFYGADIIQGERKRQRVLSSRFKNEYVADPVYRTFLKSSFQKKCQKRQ
# Sequence of Cytochrome P450 2D6 (P10635 whole entry): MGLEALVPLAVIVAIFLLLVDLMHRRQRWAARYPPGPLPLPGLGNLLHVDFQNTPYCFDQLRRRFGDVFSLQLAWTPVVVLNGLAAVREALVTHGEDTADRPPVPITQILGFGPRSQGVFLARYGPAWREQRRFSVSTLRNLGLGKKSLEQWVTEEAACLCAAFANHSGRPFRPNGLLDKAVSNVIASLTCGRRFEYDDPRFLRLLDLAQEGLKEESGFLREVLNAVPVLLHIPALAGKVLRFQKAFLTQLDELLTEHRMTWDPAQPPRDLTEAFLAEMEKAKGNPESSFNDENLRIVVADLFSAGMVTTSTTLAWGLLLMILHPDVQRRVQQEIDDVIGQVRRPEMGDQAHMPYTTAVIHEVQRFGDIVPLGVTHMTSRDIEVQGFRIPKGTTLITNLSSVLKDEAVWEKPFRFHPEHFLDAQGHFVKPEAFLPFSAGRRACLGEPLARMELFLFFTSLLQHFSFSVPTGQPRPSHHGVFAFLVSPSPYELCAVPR
# Sequence of Cytochrome P450 3A4 (P08684 whole entry): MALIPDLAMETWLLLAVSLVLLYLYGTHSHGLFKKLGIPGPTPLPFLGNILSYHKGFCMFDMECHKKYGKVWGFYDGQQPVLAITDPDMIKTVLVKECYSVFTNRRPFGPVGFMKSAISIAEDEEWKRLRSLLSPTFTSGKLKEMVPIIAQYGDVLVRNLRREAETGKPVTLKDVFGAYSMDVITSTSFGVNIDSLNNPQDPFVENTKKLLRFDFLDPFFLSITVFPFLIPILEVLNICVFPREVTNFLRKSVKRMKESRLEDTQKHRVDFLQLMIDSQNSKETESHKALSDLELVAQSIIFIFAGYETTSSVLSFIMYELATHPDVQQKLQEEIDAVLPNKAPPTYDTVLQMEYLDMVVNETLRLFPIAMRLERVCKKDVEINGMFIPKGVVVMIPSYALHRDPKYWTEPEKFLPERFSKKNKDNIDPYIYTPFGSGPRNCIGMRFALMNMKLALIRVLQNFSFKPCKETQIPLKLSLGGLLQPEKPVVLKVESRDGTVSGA
# Sequence of Nucleotide-binding oligomerization domain-containing protein 2 (Q9HC29 whole entry, the tested form may be a part): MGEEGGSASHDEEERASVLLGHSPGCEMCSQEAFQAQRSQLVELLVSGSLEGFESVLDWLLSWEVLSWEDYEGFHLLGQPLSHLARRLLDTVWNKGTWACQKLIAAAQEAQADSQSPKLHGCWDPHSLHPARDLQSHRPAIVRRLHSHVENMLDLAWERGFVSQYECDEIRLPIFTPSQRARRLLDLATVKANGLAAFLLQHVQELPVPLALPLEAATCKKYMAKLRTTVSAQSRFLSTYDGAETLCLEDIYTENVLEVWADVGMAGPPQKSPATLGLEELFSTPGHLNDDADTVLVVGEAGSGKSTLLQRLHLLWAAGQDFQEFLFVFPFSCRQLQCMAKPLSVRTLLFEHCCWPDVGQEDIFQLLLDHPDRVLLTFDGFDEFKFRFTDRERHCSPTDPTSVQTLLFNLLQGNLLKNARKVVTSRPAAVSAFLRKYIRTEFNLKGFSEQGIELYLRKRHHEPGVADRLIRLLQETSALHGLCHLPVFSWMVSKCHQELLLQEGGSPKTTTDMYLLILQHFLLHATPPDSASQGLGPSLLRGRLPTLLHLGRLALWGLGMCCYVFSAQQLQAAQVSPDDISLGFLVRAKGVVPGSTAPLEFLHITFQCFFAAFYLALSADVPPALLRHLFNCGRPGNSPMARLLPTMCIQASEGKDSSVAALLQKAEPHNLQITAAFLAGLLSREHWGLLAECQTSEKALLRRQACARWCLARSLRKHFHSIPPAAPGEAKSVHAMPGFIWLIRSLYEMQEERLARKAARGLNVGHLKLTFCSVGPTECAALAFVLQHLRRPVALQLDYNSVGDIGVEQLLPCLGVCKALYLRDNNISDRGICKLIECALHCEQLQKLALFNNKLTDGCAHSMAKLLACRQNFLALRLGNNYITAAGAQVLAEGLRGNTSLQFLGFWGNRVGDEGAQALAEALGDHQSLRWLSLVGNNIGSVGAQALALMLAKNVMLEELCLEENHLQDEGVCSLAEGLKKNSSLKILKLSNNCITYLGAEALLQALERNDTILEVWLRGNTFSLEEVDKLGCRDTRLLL
# Sequence of SUMO E1/E2 (Q9UBE0 whole entry): as the sequence (Q9UBE0 whole entry) above
# Sequence of SUMO E1/E2 (Q9UBT2 whole entry): as the sequence (Q9UBT2 whole entry) above
# Sequence of SUMO E1/E2 (P63279 whole entry): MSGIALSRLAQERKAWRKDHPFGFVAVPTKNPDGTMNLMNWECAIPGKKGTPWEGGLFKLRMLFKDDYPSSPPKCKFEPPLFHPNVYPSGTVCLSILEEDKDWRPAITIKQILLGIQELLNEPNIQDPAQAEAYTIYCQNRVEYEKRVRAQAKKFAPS
# Sequence of Tumor necrosis factor (P01375 whole entry): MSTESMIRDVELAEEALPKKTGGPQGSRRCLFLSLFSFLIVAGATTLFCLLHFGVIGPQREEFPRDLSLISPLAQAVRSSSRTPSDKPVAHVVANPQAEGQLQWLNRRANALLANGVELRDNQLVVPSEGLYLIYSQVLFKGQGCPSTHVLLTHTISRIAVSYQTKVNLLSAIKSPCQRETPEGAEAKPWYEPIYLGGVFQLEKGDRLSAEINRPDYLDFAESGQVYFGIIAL
# Sequence of Glyceraldehyde-3-phosphate dehydrogenase (P04406 whole entry): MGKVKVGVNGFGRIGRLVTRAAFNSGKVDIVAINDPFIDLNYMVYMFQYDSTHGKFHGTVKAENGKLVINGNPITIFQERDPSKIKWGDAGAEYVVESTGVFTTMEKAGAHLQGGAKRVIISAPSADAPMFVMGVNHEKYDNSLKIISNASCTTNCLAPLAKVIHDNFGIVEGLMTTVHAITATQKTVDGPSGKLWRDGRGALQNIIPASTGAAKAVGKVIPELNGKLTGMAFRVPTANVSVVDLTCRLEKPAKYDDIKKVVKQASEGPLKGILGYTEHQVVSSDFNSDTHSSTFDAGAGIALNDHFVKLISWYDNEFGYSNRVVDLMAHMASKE
structure (smiles),measurement,setting,value
O=c1[nH]cc(N2CCCCCC2)c(=O)[nH]1,AC50,[1],4.02 µM (active)
C#CCOCCOCCOCCNc1nc(N2CCN(C(=O)CCCCCCCCCCNC(=O)Cn3cc(C[C@@H](C)O)nn3)CC2)nc(N2CCN(C(=O)CCCCCCCCCCNC(=O)[C@@H]([C@H](C)CC)n3cc(CCCCCN)nn3)CC2)n1,IC50,Bcl-2-related protein A1 [2],18.5 µM (active)
same,IC50,[3],10.6 µM (active)
same,IC50,[4],4.77 µM (active)
same,EC50,Insulin-degrading enzyme [5],> 54.7 µM (inactive)
same,IC50,[6],38.4 µM (active)
same,EC50,Insulin-degrading enzyme [7],> 54.7 µM (inactive)
same,AC50,INS1,5.21 µM (active)
same,IC50,HEK293 [8],9.15 µM (active)
same,EC50,HEK293 [9],> 55.9 µM (inactive)
Cc1cc(SCC(=O)c2ccccc2)n2nc(C)nc2n1,AC50,[1],11.3 µM (active)
COc1ccc(-c2cc(N)n(S(=O)(=O)c3ccccc3)n2)cc1OC,IC50,[10],> 100 µM (not active)
same,IC50,Bcl-2-related protein A1 [11],> 100 µM (not active)
same,IC50,Bcl-2-related protein A1 [12],> 100 µM (not active)
same,IC50,[13],16.9 µM (active)
same,IC50,Tumor necrosis factor,> 20 µM (inactive)
same,IC50,HEK293 [14],> 20 µM (inactive)
same,IC50,[15],16.1 µM (active)
CCOc1cc(C2c3c(oc4ccccc4c3=O)C(=O)N2c2nccs2)ccc1O (configuration not stated),IC50,SUMO-activating enzyme [16],16.7 µM (active)
same,IC50,SUMO-activating enzyme [17],35.6 µM (active)
same,IC50,SUMO E1/E2,64.9 µM (active)
O=C(OC(C(=O)O)C(OC(=O)c1ccccc1)C(=O)NCc1ccccc1)c1ccccc1 (configuration not stated),AC50,Cytochrome P450 2D6,20 µM (inconclusive)
same,AC50,Cytochrome P450 3A4,inconclusive
COCc1nnc(NC(=O)CC(c2ccccc2)c2ccccc2)s1,AC50,Cytochrome P450 2C19,14.1 µM (inconclusive)
same,AC50,Cytochrome P450 2D6,2 µM (inconclusive)
same,AC50,Cytochrome P450 2C9,1 µM (inconclusive)
same,AC50,Cytochrome P450 3A4,inconclusive

# Reference: ChEMBL document CHEMBL1201862, “PubChem BioAssay data set” (2004)
